Measured values published in patent US4528194A, “2-(4-Diphenylmethylpiperazinyl)-1-phenyl alkanol or their salts, a process for their production and a cerebral circulation-improving drug” (Nippon Chemiphar Co., Ltd., priority 1982, dated 1985).
Where a name gives a salt, the structure may show the parent alone. Read-outs that look alike come from different tables or passages of the source.

Key:
[1] = tested on: vertebral blood flow and femoral blood flow; assay: Test 1: Peripheral Vasodilating Effect; type: in vivo, Mongrel dogs; settings: 1 mg/kg i.v.; for Percentage of vertebral blood flow increase / Percentage of vertebral blood flow increase against percentage of femoral blood flow increase: anesthetized dogs, 5% aqueous tartaric acid solution, except compounds footnoted: (1) dimethylsulfoxide, (2) distilled water, (3) physiological saline
Protocol: Mongrel dogs of both sexes each weighing about 10 kg were anesthetized with sodium pentobarbital (35 mg/kg, i.v.). Artificial respiration was performed with room air. The vertebral blood flow and femoral blood flow were measured by an electromagnetic flowmeter (Nihon Koden, MF-27) with flow probes. The blood pressure and heart rate were measured at the same time. For intravenous administration of each compound (1 mg/kg), the cephalic vein was cannulated and the compound solution injected.

[2] = Test 3: Acute Toxicity, oral, mice; settings: mouse, in vivo, 7 days observation
Protocol: (§1) Certain test compounds of the invention were administered orally to SD-strain female or male rats each having a body weight of 150 to 200 g of ddN-strain male mice each having a body weight of about 20 g.

[3] = tested on: platelets (ADP-induced coagulation); assay: Test 2: Platelet Anti-coagulating Effect, ADP-induced coagulation; type: in vivo, Male Wistar rats; settings: Rattus norvegicus, 250 mg/kg oral, rats, 3 hours after administration, ADP 2.7 uM, read-out: Inhibition percentage, ADP (2.7 uM)
Protocol: (§2) Male Wistar rats each having a body weight of about 300 g were orally administered with the test compounds. With the lapse of 3 hours after administration of the compound, each rate was anesthetized with ether, and the blood was collected from its abdominal vein. […] The blood was centrifuged at 1,000 rpm for 10 minutes. The resultant platelet-rich plasma (PRP) was centrifuged for further 10 minutes at 3,000 rpm, thereby collecting a platelet-poor plasma (PPP).
(§3) ADP or collagen was added to the PRP obtained above to induce coagulation, and the thus coagulated platelets were measured by turbidimetry using a platelet aggregation tracer ("PAT-4A", tradename of Niko Kizai Kabushiki Kaisha, Japan). The coagulation inhibition percentage was determined by the following equation: [formula] A: Maximum percentage of coagulation when a compound was administered B: Maximum percentage of coagulation when physiological saline was administered

[4] = tested on: platelets (collagen-induced coagulation); assay: Test 2: Platelet Anti-coagulating Effect, collagen-induced coagulation; type: in vivo, Male Wistar rats; settings: Rattus norvegicus; for inhibition at 250 mg/kg: 250 mg/kg oral, collagen 17.4 ug/ml, read-out: Inhibition percentage, Collagen (17.4 ug/ml)
Protocol: as §2, §3

[5] = Test 3: Acute Toxicity, oral, rats; settings: rat, in vivo, 7 days observation
Protocol: as §1

[6] = rats, 3 hours after administration
[7] = footnote * of Table 1, dogs, in dimethylsulfoxide
[8] = 200 mg/kg oral, rats, 3 hours after administration, collagen 6.25 ug/ml, read-out: Inhibition percentage, Collagen (6.25 ug/ml)

| SMILES | Percentage of vertebral blood flow increase [1] [%] | Percentage of vertebral blood flow increase against percentage of femoral blood flow increase [1] | LD50 at 168 h [2] [mg/kg] | other results |
| --- | --- | --- | --- | --- |
| C=CCOc1ccc(C(O)CN2CCN(C(c3ccccc3)c3ccccc3)CC2)cc1 (stereo not shown) [Inventive compound 11, 1-(4-Allyloxyphenyl)-2-(4-diphenylmethylpiperazinyl)ethanol.monohydrochloride] | 93 | 2.0 | > 2000 |  |
| CN(C)CCCOC1(Cc2ccccc2)CCCCCC1 [compound 4, Bencyclane fumarate, reference compound] | 67 | 2.9 |  | inhibition at 250 mg/kg [3]: 0%; inhibition at 250 mg/kg [4, 6]: 0% |
| CC(O)(CN1CCN(C(c2ccccc2)c2ccccc2)CC1)c1ccccc1 (stereo not shown) [compound 3, 2-(4-Diphenylmethylpiperazinyl)-1-methyl-1-phenylethanol.dihydrochloride, reference compound] | 20 | 1.1 |  |  |
| C=CCOc1cc(OC)ccc1C(O)CN1CCN(C(c2ccccc2)c2ccccc2)CC1 (stereo not shown) [Inventive compound 12, 1-(2-Allyloxy-4-methoxyphenyl)-2-(4-diphenylmethylpiperazinyl)ethanol.dihydrochloride] | 123 | 7.7 |  |  |
| C(=C\c1ccccc1)/CN1CCN(C(c2ccccc2)c2ccccc2)CC1 [compound 5, Cinnarizine, reference compound] | 60 | 2.5 |  |  |
| OC(CN1CCN(C(c2ccccc2)c2ccccc2)CC1)c1ccc(OCc2ccccc2)cc1 (stereo not shown) [Inventive compound 4, 1-(4-Benzyloxyphenyl)-2-(4-diphenylmethylpiperazinyl)ethanol.monohydrochloride] | 90 | 5.8 | > 2000 |  |
| OC(CN1CCN(C(c2ccccc2)c2ccccc2)CC1)c1ccc(OCc2ccccc2)cc1OCc1ccccc1 (stereo not shown) [Inventive compound 5, 1-(2,4-Dibenzyloxyphenyl)-2-(4-diphenylmethylpiperazinyl)ethanol.monohydrochloride] | 62 | 15.3 | > 2000 | blood flow increase, course [1, 7]: increased in two phases; increased blood flow lasted for [1, 7]: 30 min |
| OC(CN1CCN(C(c2ccccc2)c2ccccc2)CC1)c1ccccc1 (stereo not shown) [compound 2, 2-(4-Diphenylmethylpiperazinyl)-1-phenylethanol.dihydrochloride, reference compound] | 25 | 1.3 |  |  |
| Oc1ccccc1C(O)CN1CCN(C(c2ccccc2)c2ccccc2)CC1 (stereo not shown) [compound 1, 2-(4-Diphenylmethylpiperazinyl)-1-(2-hydroxyphenyl)ethanol.monohydrochloride, reference compound] | 26 | 1.2 |  |  |
| C[C@@H]([C@@H](O)c1ccc(OCc2ccccc2)cc1)N1CCN(C(c2ccccc2)c2ccccc2)CC1 (relative stereo) [Inventive compound 6, dl-threo-1-(4-Benzyloxyphenyl)-2-(4-diphenylmethylpiperazinyl)propanol.dihydrochloride] | 96 | 8.5 |  |  |
| COc1ccc(C(O)CN2CCN(C(c3ccccc3)c3ccccc3)CC2)c(OC)c1OC (stereo not shown) [Inventive compound 9, 2-(4-Diphenylmethylpiperazinyl)-1-(2,3,4-trimethoxyphenyl)ethanol.dihydrochloride] | 124 | 6.1 | 1230 | inhibition at 200 mg/kg [4, 8]: 90% |
| COc1cc(C(O)CN2CCN(C(c3ccccc3)c3ccccc3)CC2)cc(OC)c1OC (stereo not shown) [Inventive compound 10, 2-(4-Diphenylmethylpiperazinyl)-1-(3,4,5-trimethoxyphenyl)ethanol.monohydrochloride] | 95 | 4.6 | > 2000 |  |
| C[C@@H]([C@@H](O)c1ccc(O)cc1)N1CCN(C(c2ccccc2)c2ccccc2)CC1 (relative stereo) [Inventive compound 3, dl-threo-2-(4-Diphenylmethylpiperazinyl)-1-(4-hydroxyphenyl)propanol.tartrate] | 60 | 3.2 |  |  |
| COc1ccc(C(O)CN2CCN(C(c3ccccc3)c3ccccc3)CC2)cc1OC (stereo not shown) [Inventive compound 8, 1-(3,4-Dimethoxyphenyl)-2-(4-diphenylmethylpiperazinyl)ethanol.dihydrochloride] | 84 | 15.3 | 470 |  |
| COc1ccc(C(O)CN2CCN(C(c3ccccc3)c3ccccc3)CC2)c(OC)c1 (stereo not shown) [Inventive compound 7, 1-(2,4-Dimethoxyphenyl)-2-(4-diphenylmethylpiperazinyl)ethanol.dihydrochloride] | 123 | 5.8 | 350 |  |
| Oc1ccc(C(O)CN2CCN(C(c3ccccc3)c3ccccc3)CC2)cc1 (stereo not shown) [Inventive compound 1, 2-(4-Diphenylmethylpiperazinyl)-1-(4-hydroxyphenyl)ethanol.monohydrochloride] | 76 | 3.6 |  | inhibition at 250 mg/kg [3]: 28%; inhibition at 200 mg/kg [4, 8]: 81%; inhibition at 250 mg/kg [4, 6]: 25%; LD50 at 168 h [5]: > 2000 mg/kg |
| CC(=O)Oc1ccccc1C(=O)O [Aspirin, reference compound] |  |  |  | inhibition at 200 mg/kg ([4]; read-out: inhibition against collagen): 99% |
| C[C@@H]([C@H](O)c1ccc(O)cc1)N1CCN(C(c2ccccc2)c2ccccc2)CC1 (relative stereo) [Inventive compound 2, dl-erythro-2-(4-Diphenylmethylpiperazinyl)-1-(4-hydroxyphenyl)propanol.1/2tartrate] | 66 | 3.5 |  | inhibition at 250 mg/kg [3]: 16%; inhibition at 200 mg/kg [4, 8]: 40%; inhibition at 250 mg/kg [4, 6]: 17%; LD50 at 168 h [5]: > 2000 mg/kg |
